Test results as given in ChEMBL document CHEMBL5696442, “Discovery of type II inhibitors of TGFβ-activated kinase 1 (TAK1) and mitogen-activated protein kinase kinase kinase kinase 2 (MAP4K2)” (J Med Chem, 2015).

Assays:
[1] = molecular target: T1, Dual specificity mitogen-activated protein kinase kinase 6 (Homo sapiens) (UniProt P52564); experiment: Inhibition of MAP2K6 Lys2 labeling site in human Huh-7 cell lysate at 1 uM by KiNativ Profiling analysis relative to control; assay type: subcellular
T1 sequence (whole entry): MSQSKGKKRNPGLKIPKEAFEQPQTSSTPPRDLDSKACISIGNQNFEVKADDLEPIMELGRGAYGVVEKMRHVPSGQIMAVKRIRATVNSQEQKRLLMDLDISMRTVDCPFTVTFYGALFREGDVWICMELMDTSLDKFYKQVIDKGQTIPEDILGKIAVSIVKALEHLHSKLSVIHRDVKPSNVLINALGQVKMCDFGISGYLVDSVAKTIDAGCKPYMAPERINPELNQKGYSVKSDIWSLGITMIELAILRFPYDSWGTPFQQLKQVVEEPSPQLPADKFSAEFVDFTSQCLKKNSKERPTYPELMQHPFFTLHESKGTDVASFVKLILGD

[2] = molecular target: T2, Serine/threonine-protein kinase TAO1 (Homo sapiens) (UniProt Q7L7X3); experiment: Inhibition of TAO1 Lys2 labeling site in human Huh-7 cells at 1 uM by KiNativ Profiling analysis relative to control; assay type: cell-based
T2 sequence (whole entry): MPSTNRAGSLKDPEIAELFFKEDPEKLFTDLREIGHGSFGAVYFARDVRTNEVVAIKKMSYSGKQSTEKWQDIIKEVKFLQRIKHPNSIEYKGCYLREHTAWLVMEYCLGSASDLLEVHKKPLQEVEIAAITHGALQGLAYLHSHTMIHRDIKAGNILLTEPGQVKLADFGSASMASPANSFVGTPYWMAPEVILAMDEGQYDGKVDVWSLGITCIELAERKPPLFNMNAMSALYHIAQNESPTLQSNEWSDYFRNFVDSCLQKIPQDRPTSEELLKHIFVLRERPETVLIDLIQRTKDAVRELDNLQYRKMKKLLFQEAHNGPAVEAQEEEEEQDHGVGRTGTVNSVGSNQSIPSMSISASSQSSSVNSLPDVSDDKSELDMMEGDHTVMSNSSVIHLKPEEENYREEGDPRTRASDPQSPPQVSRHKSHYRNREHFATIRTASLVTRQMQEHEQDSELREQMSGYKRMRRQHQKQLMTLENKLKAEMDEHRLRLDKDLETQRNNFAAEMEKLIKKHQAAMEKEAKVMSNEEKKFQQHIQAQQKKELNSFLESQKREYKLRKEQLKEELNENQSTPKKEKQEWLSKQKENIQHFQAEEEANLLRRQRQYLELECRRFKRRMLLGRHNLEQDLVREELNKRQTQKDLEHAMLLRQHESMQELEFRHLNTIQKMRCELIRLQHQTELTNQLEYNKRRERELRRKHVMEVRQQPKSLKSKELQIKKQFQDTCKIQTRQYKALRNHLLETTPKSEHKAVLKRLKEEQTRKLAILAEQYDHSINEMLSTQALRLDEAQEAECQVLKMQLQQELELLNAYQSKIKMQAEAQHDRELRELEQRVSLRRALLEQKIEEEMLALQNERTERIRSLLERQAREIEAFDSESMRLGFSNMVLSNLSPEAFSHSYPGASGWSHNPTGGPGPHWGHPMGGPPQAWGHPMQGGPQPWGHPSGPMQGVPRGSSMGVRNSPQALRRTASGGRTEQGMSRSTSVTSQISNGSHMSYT

[3] = molecular target: T3, Mitogen-activated protein kinase kinase kinase 6 (Homo sapiens) (UniProt O95382); experiment: Inhibition of MAP3K6 Lys1 labeling site harbouring IAIKEIPERDSR in human A-375 cells at 0.05 uM by KiNativ Profiling analysis relative to control; assay type: cell-based
T3 sequence (whole entry): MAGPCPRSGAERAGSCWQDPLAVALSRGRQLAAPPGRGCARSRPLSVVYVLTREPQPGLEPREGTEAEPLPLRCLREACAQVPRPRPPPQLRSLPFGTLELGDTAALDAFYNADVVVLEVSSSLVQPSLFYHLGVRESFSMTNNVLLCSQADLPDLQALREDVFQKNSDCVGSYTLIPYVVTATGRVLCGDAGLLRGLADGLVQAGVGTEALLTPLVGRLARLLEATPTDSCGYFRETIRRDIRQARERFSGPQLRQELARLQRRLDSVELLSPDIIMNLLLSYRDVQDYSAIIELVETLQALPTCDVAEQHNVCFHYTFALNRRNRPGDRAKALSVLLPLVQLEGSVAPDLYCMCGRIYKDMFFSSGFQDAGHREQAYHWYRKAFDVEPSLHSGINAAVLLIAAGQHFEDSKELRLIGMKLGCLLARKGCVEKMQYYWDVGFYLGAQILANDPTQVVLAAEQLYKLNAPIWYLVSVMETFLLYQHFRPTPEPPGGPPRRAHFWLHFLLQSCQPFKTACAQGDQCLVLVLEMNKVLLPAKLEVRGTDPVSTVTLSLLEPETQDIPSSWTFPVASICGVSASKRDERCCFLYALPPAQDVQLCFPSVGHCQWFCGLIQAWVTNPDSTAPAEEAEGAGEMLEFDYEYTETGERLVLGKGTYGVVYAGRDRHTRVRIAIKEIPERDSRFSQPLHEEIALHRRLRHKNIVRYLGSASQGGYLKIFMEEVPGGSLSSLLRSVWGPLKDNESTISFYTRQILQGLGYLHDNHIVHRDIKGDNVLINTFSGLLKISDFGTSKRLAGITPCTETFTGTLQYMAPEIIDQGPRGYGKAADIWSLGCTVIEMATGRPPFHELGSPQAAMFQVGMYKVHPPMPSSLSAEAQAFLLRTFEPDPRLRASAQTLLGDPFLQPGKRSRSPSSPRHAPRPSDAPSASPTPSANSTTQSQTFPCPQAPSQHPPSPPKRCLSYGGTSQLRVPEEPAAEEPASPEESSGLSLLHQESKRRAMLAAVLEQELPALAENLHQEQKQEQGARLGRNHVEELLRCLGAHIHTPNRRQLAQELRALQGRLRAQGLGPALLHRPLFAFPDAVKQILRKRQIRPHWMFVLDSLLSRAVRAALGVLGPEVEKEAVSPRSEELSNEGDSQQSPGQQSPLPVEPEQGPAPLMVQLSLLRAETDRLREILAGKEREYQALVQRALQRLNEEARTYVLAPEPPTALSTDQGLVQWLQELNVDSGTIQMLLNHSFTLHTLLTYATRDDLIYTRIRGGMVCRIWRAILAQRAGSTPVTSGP

[4] = molecular target: Misshapen-like kinase 1 (Homo sapiens) (UniProt Q8N4C8); experiment: Inhibition of ZC3/MINK Lys2 labeling site in human A-375 cells at 5 uM by KiNativ Profiling analysis relative to control; assay type: cell-based
Chain of Misshapen-like kinase 1 (Homo sapiens) (Q8N4C8 whole entry, looked up): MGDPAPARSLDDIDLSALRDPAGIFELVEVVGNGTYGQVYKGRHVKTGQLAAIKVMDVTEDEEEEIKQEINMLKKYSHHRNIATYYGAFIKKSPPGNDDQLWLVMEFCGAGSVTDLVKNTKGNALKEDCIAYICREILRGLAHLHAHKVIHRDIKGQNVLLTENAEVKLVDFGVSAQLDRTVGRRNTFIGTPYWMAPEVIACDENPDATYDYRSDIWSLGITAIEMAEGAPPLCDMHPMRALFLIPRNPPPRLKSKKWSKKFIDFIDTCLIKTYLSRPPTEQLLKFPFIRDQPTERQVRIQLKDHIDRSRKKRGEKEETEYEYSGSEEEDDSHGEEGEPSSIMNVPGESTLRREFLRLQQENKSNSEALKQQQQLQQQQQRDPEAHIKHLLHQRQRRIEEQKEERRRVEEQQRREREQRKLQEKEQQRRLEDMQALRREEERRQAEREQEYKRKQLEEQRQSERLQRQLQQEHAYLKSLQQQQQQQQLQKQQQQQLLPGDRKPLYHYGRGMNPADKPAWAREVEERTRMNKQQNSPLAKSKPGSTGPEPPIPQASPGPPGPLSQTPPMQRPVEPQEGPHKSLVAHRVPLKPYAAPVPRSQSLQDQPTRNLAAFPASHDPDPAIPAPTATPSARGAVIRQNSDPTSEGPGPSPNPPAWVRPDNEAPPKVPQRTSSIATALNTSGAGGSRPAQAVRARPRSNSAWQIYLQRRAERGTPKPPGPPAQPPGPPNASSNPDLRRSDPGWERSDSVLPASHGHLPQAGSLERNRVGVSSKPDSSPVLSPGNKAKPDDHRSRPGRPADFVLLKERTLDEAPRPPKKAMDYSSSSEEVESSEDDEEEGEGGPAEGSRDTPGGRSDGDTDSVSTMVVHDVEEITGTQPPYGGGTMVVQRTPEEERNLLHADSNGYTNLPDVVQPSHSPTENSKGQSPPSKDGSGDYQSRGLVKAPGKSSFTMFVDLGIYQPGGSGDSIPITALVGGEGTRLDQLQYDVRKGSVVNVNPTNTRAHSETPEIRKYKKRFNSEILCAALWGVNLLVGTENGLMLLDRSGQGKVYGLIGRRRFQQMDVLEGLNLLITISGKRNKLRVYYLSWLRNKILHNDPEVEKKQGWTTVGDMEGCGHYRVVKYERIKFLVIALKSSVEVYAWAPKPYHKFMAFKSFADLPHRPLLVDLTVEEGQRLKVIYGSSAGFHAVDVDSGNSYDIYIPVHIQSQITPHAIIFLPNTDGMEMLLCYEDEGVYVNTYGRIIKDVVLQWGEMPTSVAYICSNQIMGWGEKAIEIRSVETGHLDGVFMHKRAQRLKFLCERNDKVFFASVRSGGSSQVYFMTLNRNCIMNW

Compound	inhibition [1] [%]	inhibition [2] [%]	inhibition [3] [%]	inhibition [4] [%]
CNc1cc(Oc2cc(C(=O)Nc3cc(N4CCN(C)CC4)cc(C(F)(F)F)c3)ccc2C)ncn1	-4	0.4		
CCN1CCN(Cc2ccc(NC(=O)c3ccc(C)c(Oc4ccnc5[nH]ccc45)c3)cc2C(F)(F)F)CC1			-3.3	92.7
